Data from ChEMBL document CHEMBL6109153, “Development of Membrane-Targeting Osthole Derivatives Containing Pyridinium Quaternary Ammonium Moieties with Potent Anti-Methicillin-Resistant Staphylococcus aureus Properties” (J Med Chem, 2025).

Legend:
Staphylococcus aureus [1] = assay: Induction of cell permeability in methicillin-resistant Staphylococcus aureus M11 assessed as fold increase in fluorescence intensity at 32 times MIC by SYTOX Green dye based analysis relative to control; assay type: functional
Staphylococcus aureus [2] = assay: Antibacterial activity against methicillin-resistant Staphylococcus aureus M22 incubated for 16 to 20 hrs by broth microdilution method; assay type: functional; settings: time 16-20 hrs
Staphylococcus aureus [3] = assay: Antibacterial activity against methicillin-resistant Staphylococcus aureus M17 incubated for 16 to 20 hrs by broth microdilution method; assay type: functional; settings: time 16-20 hrs
Staphylococcus aureus [4] = assay: Antibacterial activity against methicillin-resistant Staphylococcus aureus M16 incubated for 16 to 20 hrs by broth microdilution method; assay type: functional; settings: time 16-20 hrs
Staphylococcus aureus [5] = assay: Antibacterial activity against methicillin-resistant Staphylococcus aureus M13 incubated for 16 to 20 hrs by broth microdilution method; assay type: functional; settings: time 16-20 hrs
Staphylococcus aureus [6] = assay: Antibacterial activity against methicillin-resistant Staphylococcus aureus M21 incubated for 16 to 20 hrs by broth microdilution method; assay type: functional; settings: time 16-20 hrs
[7] = Hemolytic activity against sheep erythrocytes; assay type: toxicity, cell-based, Ovis aries, Erythrocyte
Staphylococcus aureus [8] = assay: Antibacterial activity against Staphylococcus aureus ATCC 29213 incubated for 16 to 20 hrs by broth microdilution method; assay type: functional; settings: time 16-20 hrs
Staphylococcus aureus [9] = assay: Antibacterial activity against methicillin-resistant Staphylococcus aureus M12 incubated for 16 to 20 hrs by broth microdilution method; assay type: functional; settings: time 16-20 hrs
Staphylococcus aureus [10] = assay: Antibacterial activity against methicillin-resistant Staphylococcus aureus M14 incubated for 16 to 20 hrs by broth microdilution method; assay type: functional; settings: time 16-20 hrs
Staphylococcus aureus [11] = assay: Antibacterial activity against methicillin-resistant Staphylococcus aureus M23 incubated for 16 to 20 hrs by broth microdilution method; assay type: functional; settings: time 16-20 hrs
Staphylococcus aureus [12] = assay: Antibacterial activity against methicillin-resistant Staphylococcus aureus M20 incubated for 16 to 20 hrs by broth microdilution method; assay type: functional; settings: time 16-20 hrs
Staphylococcus aureus [13] = assay: Antibacterial activity against methicillin-resistant Staphylococcus aureus M11 incubated for 16 to 20 hrs by broth microdilution method; assay type: functional; settings: time 16-20 hrs
Escherichia coli = assay: Antibacterial activity against Escherichia coli ATCC 25922 incubated for 16 to 20 hrs by broth microdilution method; assay type: functional; settings: time 16-20 hrs
Staphylococcus aureus [14] = assay: Induction of resistance development in Staphylococcus aureus ATCC 29213 assessed as fold change in MIC at 0.5 times MIC measured after 18 passages by broth microdilution method; assay type: functional

For CC[C@H](C)[C@H](NC(=O)CN)C(=O)NCC(=O)N[C@@H](C)C(=O)N[C@H](C(=O)N[C@@H](CC(C)C)C(=O)N[C@@H](CCCCN)C(=O)N[C@H](C(=O)N[C@@H](CC(C)C)C(=O)N[C@H](C(=O)N[C@H](C(=O)NCC(=O)N[C@@H](CC(C)C)C(=O)N1CCC[C@H]1C(=O)N[C@@H](C)C(=O)N[C@@H](CC(C)C)C(=O)N[C@H](C(=O)N[C@@H](CO)C(=O)N[C@@H](Cc1c[nH]c2ccccc12)C(=O)N[C@H](C(=O)N[C@@H](CCCCN)C(=O)N[C@@H](CCCNC(=N)N)C(=O)N[C@@H](CCCCN)C(=O)N[C@@H](CCCNC(=N)N)C(=O)N[C@@H](CCC(N)=O)C(=O)N[C@@H](CCC(N)=O)C(N)=O)[C@@H](C)CC)[C@@H](C)CC)[C@@H](C)O)[C@@H](C)O)C(C)C)C(C)C [MELITTIN], the “fold change (FC)” value (Staphylococcus aureus [1]) was ~8.
With CC(C)=CCc1c(OCCCSc2cc[n+](CC(=O)N3CCOCC3)cc2)ccc2ccc(=O)oc12.[Br-] the MIC (Staphylococcus aureus [2]) was 32 µg/mL, the MIC (Staphylococcus aureus [3]) was 64 µg/mL and the MIC (Staphylococcus aureus [4]) was 64 µg/mL. The MIC (Staphylococcus aureus [5]) was 128 µg/mL, the MIC (Staphylococcus aureus [6]) was 32 µg/mL and the HC50 [7] was > 160 µg/mL. For the same compound, the MIC (Staphylococcus aureus [8]) was 128 µg/mL, the MIC (Staphylococcus aureus [9]) was 128 µg/mL and the MIC (Staphylococcus aureus [10]) was 64 µg/mL. For the same compound, the MIC (Staphylococcus aureus [11]) was 128 µg/mL, the MIC (Staphylococcus aureus [12]) was 64 µg/mL and the MIC (Staphylococcus aureus [13]) was 32 µg/mL. The MIC (Escherichia coli) was > 128 µg/mL.
In the case of CC(C)=CCc1c(OCCCCSc2cc[n+](CC(=O)N3CCOCC3)cc2)ccc2ccc(=O)oc12.[Br-], the MIC (Staphylococcus aureus [2]) is reported as 32 µg/mL, the MIC (Staphylococcus aureus [3]) is reported as 32 µg/mL and the MIC (Staphylococcus aureus [4]) is reported as 32 µg/mL. The MIC (Staphylococcus aureus [5]) was 64 µg/mL, the MIC (Staphylococcus aureus [6]) was 32 µg/mL and the HC50 [7] was > 160 µg/mL. It also gave an MIC (Staphylococcus aureus [8]) of 32 µg/mL, an MIC (Staphylococcus aureus [9]) of 64 µg/mL and an MIC (Staphylococcus aureus [10]) of 32 µg/mL. For the same compound, the MIC (Staphylococcus aureus [11]) was 32 µg/mL, the MIC (Staphylococcus aureus [12]) was 32 µg/mL and the MIC (Staphylococcus aureus [13]) was 32 µg/mL. The MIC (Escherichia coli) was > 128 µg/mL.
CCCCCCNC(=O)C[n+]1ccc(SCCCCCOc2ccc3ccc(=O)oc3c2CC=C(C)C)cc1.[Br-] showed an MIC (Staphylococcus aureus [2]) of 2 µg/mL, an MIC (Staphylococcus aureus [3]) of 2 µg/mL and an MIC (Staphylococcus aureus [4]) of 2 µg/mL. For the same compound, the MIC (Staphylococcus aureus [5]) was 2 µg/mL, the MIC (Staphylococcus aureus [6]) was 2 µg/mL and the HC50 [7] was > 160 µg/mL. For the same compound, the MIC (Staphylococcus aureus [8]) was 64 µg/mL, the MIC (Staphylococcus aureus [9]) was 2 µg/mL and the MIC (Staphylococcus aureus [10]) was 2 µg/mL. For the same compound, the MIC (Staphylococcus aureus [11]) was 2 µg/mL, the MIC (Staphylococcus aureus [12]) was 4 µg/mL and the MIC (Staphylococcus aureus [13]) was 2 µg/mL. The MIC (Escherichia coli) was > 128 µg/mL.
For CC(C)=CCc1c(OCCCSc2cc[n+](CC(=O)N(C)c3ccccc3)cc2)ccc2ccc(=O)oc12.[Br-], the MIC (Staphylococcus aureus [2]) was 8 µg/mL, the MIC (Staphylococcus aureus [3]) was 8 µg/mL and the MIC (Staphylococcus aureus [4]) was 8 µg/mL. For the same compound, the MIC (Staphylococcus aureus [5]) was 16 µg/mL, the MIC (Staphylococcus aureus [6]) was 8 µg/mL and the HC50 [7] was > 160 µg/mL. It also gave an MIC (Staphylococcus aureus [8]) of 8 µg/mL, an MIC (Staphylococcus aureus [9]) of 16 µg/mL and an MIC (Staphylococcus aureus [10]) of 4 µg/mL. The MIC (Staphylococcus aureus [11]) was 8 µg/mL, the MIC (Staphylococcus aureus [12]) was 4 µg/mL and the MIC (Staphylococcus aureus [13]) was 4 µg/mL. For the same compound, the MIC (Escherichia coli) was > 128 µg/mL.
With CCn1cc(C(=O)O)c(=O)c2cc(F)c(N3CCNCC3)cc21 [NORFLOXACIN] the “fold change (FC)” value (Staphylococcus aureus [14]) was 128.
Compound CCCN(CCC)C(=O)C[n+]1ccc(SCCCCCOc2ccc3ccc(=O)oc3c2CC=C(C)C)cc1.[Br-] has an MIC (Staphylococcus aureus [2]) of 1 µg/mL, an MIC (Staphylococcus aureus [3]) of 2 µg/mL and an MIC (Staphylococcus aureus [4]) of 1 µg/mL. The MIC (Staphylococcus aureus [5]) was 4 µg/mL, the MIC (Staphylococcus aureus [6]) was 1 µg/mL and the HC50 [7] was > 160 µg/mL. For the same compound, the MIC (Staphylococcus aureus [8]) was 1 µg/mL, the MIC (Staphylococcus aureus [9]) was 2 µg/mL and the MIC (Staphylococcus aureus [10]) was 1 µg/mL. For the same compound, the MIC (Staphylococcus aureus [11]) was 2 µg/mL, the MIC (Staphylococcus aureus [12]) was 1 µg/mL and the MIC (Staphylococcus aureus [13]) was 1 µg/mL. For the same compound, the MIC (Escherichia coli) was > 128 µg/mL.
CCCCN(CCCC)C(=O)C[n+]1ccc(SCCCOc2ccc3ccc(=O)oc3c2CC=C(C)C)cc1.[Br-] showed an MIC (Staphylococcus aureus [2]) of 2 µg/mL, an MIC (Staphylococcus aureus [3]) of 1 µg/mL and an MIC (Staphylococcus aureus [4]) of 2 µg/mL. The MIC (Staphylococcus aureus [5]) was 4 µg/mL, the MIC (Staphylococcus aureus [6]) was 2 µg/mL and the HC50 [7] was > 160 µg/mL. It also gave an MIC (Staphylococcus aureus [8]) of 1 µg/mL, an MIC (Staphylococcus aureus [9]) of 4 µg/mL and an MIC (Staphylococcus aureus [10]) of 1 µg/mL. It also gave an MIC (Staphylococcus aureus [11]) of 2 µg/mL, an MIC (Staphylococcus aureus [12]) of 1 µg/mL and an MIC (Staphylococcus aureus [13]) of 1 µg/mL. The MIC (Escherichia coli) was > 128 µg/mL.
Work on CCCCNC(=O)C[n+]1ccc(SCCCCOc2ccc3ccc(=O)oc3c2CC=C(C)C)cc1.[Br-] yielded an MIC (Staphylococcus aureus [2]) of 4 µg/mL, an MIC (Staphylococcus aureus [3]) of 4 µg/mL and an MIC (Staphylococcus aureus [4]) of 2 µg/mL. The MIC (Staphylococcus aureus [5]) was 4 µg/mL, the MIC (Staphylococcus aureus [6]) was 4 µg/mL and the HC50 [7] was > 160 µg/mL. For the same compound, the MIC (Staphylococcus aureus [8]) was 8 µg/mL, the MIC (Staphylococcus aureus [9]) was 4 µg/mL and the MIC (Staphylococcus aureus [10]) was 2 µg/mL. The MIC (Staphylococcus aureus [11]) was 4 µg/mL, the MIC (Staphylococcus aureus [12]) was 2 µg/mL and the MIC (Staphylococcus aureus [13]) was 2 µg/mL. The MIC (Escherichia coli) was > 128 µg/mL.
